# Measured values published in article PMC11992225, “Antibacterial compounds against non-growing and intracellular bacteria” (npj Antimicrobials and Resistance, 2025).
# “And” between values parts separate entries of the source, which are not always exact repeats. Equal entries are not always repeated.
# Legend:
# [1] = system: non-growing S. aureus DSM2569; experiment: Dilution-regrowth assay (OD600, start-growth-time) on stationary-phase S. aureus; type: cell-based, Staphylococcus aureus; conditions: S. aureus; for Regrowth: OD600 after dilution into drug-free medium (mean): OD600 at 6h or 8h
# Outline: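 Stationary-phase S. aureus cultures were grown and exposed to compound for 24 h in 1:4 CA-MHB (pH 7.4) at 37 °C in 96-well plates with 200 μl volume. After dilution into drug-free medium, regrowth was tracked in a plate reader at 37 °C with continuous shaking, reading OD600 every 20 min; EC50 came from five-parameter logistic fitting.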
# non-growing UPEC CFT073 = experiment: Dose-dependent killing analysis (CFU spot-plating) of stationary-phase UPEC; type: cell-based, Escherichia coli
# Outline: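 Non-growing (stationary-phase) UPEC CFT073 treated with compounds in 96-well format at 200 μl, then 10-fold serially diluted in PBS and 10 μl spots plated on LB agar. Plates incubated overnight at 37 °C; colonies counted at lowest resolvable dilution to give CFU. Three biological replicates.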
# [2] = system: non-growing S. aureus DSM2569; experiment: Dose-dependent killing analysis (CFU spot-plating) of stationary-phase S. aureus; type: cell-based, Staphylococcus aureus; conditions: S. aureus; for Killing: average Δlog10(CFU/ml): vs 9,097 before treatment
# Outline: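 Stationary-phase S. aureus DSM2569 was grown and treated for 24 h in 1:4 CA-MHB at pH 7.4. Treated samples were serially diluted 10-fold in PBS and spot-plated on LB agar, which was incubated overnight at 37 °C. Survivors were counted as CFU over three biological replicates.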
compound,measurement,setting,value
CO[C@H]1/C=C/O[C@@]2(C)Oc3c(C)c(O)c4c(O)c(c(/C=N/N=C/N5CCCCC5)c(O)c4c3C2=O)NC(=O)/C(C)=C\C=C\[C@H](C)[C@H](O)[C@@H](C)[C@@H](O)[C@@H](C)[C@H](OC(C)=O)[C@@H]1C [FCE-22250],Regrowth: OD600 after dilution into drug-free medium (mean),[1]; concentration 0.1,0.461
same,Regrowth: OD600 after dilution into drug-free medium (mean),[1]; concentration 0.5,0.312
same,Regrowth: OD600 after dilution into drug-free medium (mean),[1]; concentration 2.5,0.178
same,Regrowth: OD600 after dilution into drug-free medium (mean),[1]; concentration 10,0.092
same,EC50,"[1]; regrowth delay of non-growing bacteria, 1:4 CA-MHB pH 7.4, 24 h treatment, OD600 8 h after dilution, read-out: EC50",278 nM
same,"log10(CFU/ml) after treatment, single replicates","non-growing UPEC CFT073; E. coli in 1:4 CA-MHB (pH 7.4), concentration 0.25",9.301 log10(CFU/ml) and 8.845 log10(CFU/ml) and 8.602 log10(CFU/ml)
same,Killing: average Δlog10(CFU/ml),"non-growing UPEC CFT073; E. coli in 1:4 CA-MHB (pH 7.4), concentration 0.25, vs 8.977 before treatment",0.061 log10(CFU/ml)
same,"log10(CFU/ml) after treatment, single replicates","non-growing UPEC CFT073; E. coli in 1:4 CA-MHB (pH 7.4), concentration 0.5",9.505 log10(CFU/ml) and 9.176 log10(CFU/ml) and 8.301 log10(CFU/ml)
same,Killing: average Δlog10(CFU/ml),"non-growing UPEC CFT073; E. coli in 1:4 CA-MHB (pH 7.4), concentration 0.5, vs 8.977 before treatment",-0.017 log10(CFU/ml)
same,"log10(CFU/ml) after treatment, single replicates","non-growing UPEC CFT073; E. coli in 1:4 CA-MHB (pH 7.4), concentration 1",9.556 log10(CFU/ml) and 9.114 log10(CFU/ml) and 8.431 log10(CFU/ml)
same,Killing: average Δlog10(CFU/ml),"non-growing UPEC CFT073; E. coli in 1:4 CA-MHB (pH 7.4), concentration 1, vs 8.977 before treatment",-0.057 log10(CFU/ml)
same,"log10(CFU/ml) after treatment, single replicates","non-growing UPEC CFT073; E. coli in 1:4 CA-MHB (pH 7.4), concentration 2.5",9.415 log10(CFU/ml) and 8.954 log10(CFU/ml) and 8.342 log10(CFU/ml)
same,Killing: average Δlog10(CFU/ml),"non-growing UPEC CFT073; E. coli in 1:4 CA-MHB (pH 7.4), concentration 2.5, vs 8.977 before treatment",0.073 log10(CFU/ml)
same,"log10(CFU/ml) after treatment, single replicates","non-growing UPEC CFT073; E. coli in 1:4 CA-MHB (pH 7.4), concentration 5",9.477 log10(CFU/ml) and 8.903 log10(CFU/ml) and 8.431 log10(CFU/ml)
same,Killing: average Δlog10(CFU/ml),"non-growing UPEC CFT073; E. coli in 1:4 CA-MHB (pH 7.4), concentration 5, vs 8.977 before treatment",0.040 log10(CFU/ml)
same,"log10(CFU/ml) after treatment, single replicates","non-growing UPEC CFT073; E. coli in 1:4 CA-MHB (pH 7.4), concentration 10",9.519 log10(CFU/ml) and 8.845 log10(CFU/ml) and 8.778 log10(CFU/ml)
same,Killing: average Δlog10(CFU/ml),"non-growing UPEC CFT073; E. coli in 1:4 CA-MHB (pH 7.4), concentration 10, vs 8.977 before treatment",-0.070 log10(CFU/ml)
same,"log10(CFU/ml) after treatment, single replicates","non-growing UPEC CFT073; E. coli in LPM (pH 5.5), concentration 0.25",7.041 log10(CFU/ml) and 7.176 log10(CFU/ml) and 8.079 log10(CFU/ml)
same,Killing: average Δlog10(CFU/ml),"non-growing UPEC CFT073; E. coli in LPM (pH 5.5), concentration 0.25, vs 7.350 before treatment",-0.082 log10(CFU/ml)
same,"log10(CFU/ml) after treatment, single replicates","non-growing UPEC CFT073; E. coli in LPM (pH 5.5), concentration 0.5",6.845 log10(CFU/ml) and 6.778 log10(CFU/ml) and 8.000 log10(CFU/ml)
same,Killing: average Δlog10(CFU/ml),"non-growing UPEC CFT073; E. coli in LPM (pH 5.5), concentration 0.5, vs 7.350 before treatment",0.143 log10(CFU/ml)
same,"log10(CFU/ml) after treatment, single replicates","non-growing UPEC CFT073; E. coli in LPM (pH 5.5), concentration 1",7.176 log10(CFU/ml) and 7.255 log10(CFU/ml) and 8.000 log10(CFU/ml)
same,Killing: average Δlog10(CFU/ml),"non-growing UPEC CFT073; E. coli in LPM (pH 5.5), concentration 1, vs 7.350 before treatment",-0.127 log10(CFU/ml)
same,"log10(CFU/ml) after treatment, single replicates","non-growing UPEC CFT073; E. coli in LPM (pH 5.5), concentration 2.5",6.845 log10(CFU/ml) and 6.954 log10(CFU/ml) and 7.845 log10(CFU/ml)
same,Killing: average Δlog10(CFU/ml),"non-growing UPEC CFT073; E. coli in LPM (pH 5.5), concentration 2.5, vs 7.350 before treatment",0.136 log10(CFU/ml)
same,"log10(CFU/ml) after treatment, single replicates","non-growing UPEC CFT073; E. coli in LPM (pH 5.5), concentration 5",6.778 log10(CFU/ml) and 6.845 log10(CFU/ml) and 7.785 log10(CFU/ml)
same,Killing: average Δlog10(CFU/ml),"non-growing UPEC CFT073; E. coli in LPM (pH 5.5), concentration 5, vs 7.350 before treatment",0.214 log10(CFU/ml)
same,"log10(CFU/ml) after treatment, single replicates","non-growing UPEC CFT073; E. coli in LPM (pH 5.5), concentration 10",6.954 log10(CFU/ml) (2×) and 7.531 log10(CFU/ml)
same,Killing: average Δlog10(CFU/ml),"non-growing UPEC CFT073; E. coli in LPM (pH 5.5), concentration 10, vs 7.350 before treatment",0.204 log10(CFU/ml)
same,"log10(CFU/ml) after treatment, single replicates",[2]; concentration 0.1,9.505 log10(CFU/ml) and 8.903 log10(CFU/ml) and 9.033 log10(CFU/ml)
same,Killing: average Δlog10(CFU/ml),[2]; concentration 0.1,-0.050 log10(CFU/ml)
same,"log10(CFU/ml) after treatment, single replicates",[2]; concentration 0.5,9.107 log10(CFU/ml) and 9.017 log10(CFU/ml) and 8.505 log10(CFU/ml)
same,Killing: average Δlog10(CFU/ml),[2]; concentration 0.5,0.221 log10(CFU/ml)
same,"log10(CFU/ml) after treatment, single replicates",[2]; concentration 2.5,8.929 log10(CFU/ml) and 8.940 log10(CFU/ml) and 8.806 log10(CFU/ml)
same,Killing: average Δlog10(CFU/ml),[2]; concentration 2.5,0.205 log10(CFU/ml)
same,"log10(CFU/ml) after treatment, single replicates",[2]; concentration 10,8.973 log10(CFU/ml) and 9.017 log10(CFU/ml) and 8.944 log10(CFU/ml)
same,Killing: average Δlog10(CFU/ml),[2]; concentration 10,0.119 log10(CFU/ml)
